Results from article PMC4979471 (Cell Death Discovery, 2015).
Read-outs that look alike come from different tables or passages of the source.

How the values were obtained:
Assay in all cases: Kinase selectivity, P33-radiolabeled assay
Assay type in all cases: biochemical
Details in all cases: 10 μM ATP
MARK4 = target: T1, MARK4 (Homo sapiens, UniProt Q96L34)
T1 construct: purchased Reaction Biology Corp
T1 sequence (Q96L34 1-752): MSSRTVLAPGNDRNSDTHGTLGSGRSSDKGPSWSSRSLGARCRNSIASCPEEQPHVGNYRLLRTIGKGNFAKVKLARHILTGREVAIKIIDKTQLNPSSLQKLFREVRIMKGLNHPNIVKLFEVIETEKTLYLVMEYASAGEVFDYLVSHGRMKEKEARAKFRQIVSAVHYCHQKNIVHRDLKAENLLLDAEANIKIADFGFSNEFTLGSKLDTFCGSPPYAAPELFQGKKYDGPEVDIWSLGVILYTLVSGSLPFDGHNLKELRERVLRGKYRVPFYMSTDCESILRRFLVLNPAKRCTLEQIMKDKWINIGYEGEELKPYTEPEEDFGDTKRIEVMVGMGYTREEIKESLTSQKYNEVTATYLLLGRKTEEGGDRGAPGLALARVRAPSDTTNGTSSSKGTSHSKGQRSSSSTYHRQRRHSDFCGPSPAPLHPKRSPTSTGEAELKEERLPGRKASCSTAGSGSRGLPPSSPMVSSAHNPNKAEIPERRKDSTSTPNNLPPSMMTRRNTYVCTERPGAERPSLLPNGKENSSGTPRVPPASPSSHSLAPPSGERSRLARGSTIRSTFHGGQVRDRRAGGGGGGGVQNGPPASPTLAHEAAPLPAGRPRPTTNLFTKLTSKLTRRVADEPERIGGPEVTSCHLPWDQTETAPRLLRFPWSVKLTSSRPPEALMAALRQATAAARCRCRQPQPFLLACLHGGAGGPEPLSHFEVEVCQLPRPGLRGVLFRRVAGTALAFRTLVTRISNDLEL
Procedure, shortened: (§1)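 Values show % enzyme activity normalised to DMSO vehicle. They come from one 10 μM compound concentration run twice, at an ATP level of 10 μM.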

TNK1 = target: T2, TNK1 (Homo sapiens, UniProt Q13470)
T2 construct: purchased Reaction Biology Corp
T2 sequence (Q13470 1-666): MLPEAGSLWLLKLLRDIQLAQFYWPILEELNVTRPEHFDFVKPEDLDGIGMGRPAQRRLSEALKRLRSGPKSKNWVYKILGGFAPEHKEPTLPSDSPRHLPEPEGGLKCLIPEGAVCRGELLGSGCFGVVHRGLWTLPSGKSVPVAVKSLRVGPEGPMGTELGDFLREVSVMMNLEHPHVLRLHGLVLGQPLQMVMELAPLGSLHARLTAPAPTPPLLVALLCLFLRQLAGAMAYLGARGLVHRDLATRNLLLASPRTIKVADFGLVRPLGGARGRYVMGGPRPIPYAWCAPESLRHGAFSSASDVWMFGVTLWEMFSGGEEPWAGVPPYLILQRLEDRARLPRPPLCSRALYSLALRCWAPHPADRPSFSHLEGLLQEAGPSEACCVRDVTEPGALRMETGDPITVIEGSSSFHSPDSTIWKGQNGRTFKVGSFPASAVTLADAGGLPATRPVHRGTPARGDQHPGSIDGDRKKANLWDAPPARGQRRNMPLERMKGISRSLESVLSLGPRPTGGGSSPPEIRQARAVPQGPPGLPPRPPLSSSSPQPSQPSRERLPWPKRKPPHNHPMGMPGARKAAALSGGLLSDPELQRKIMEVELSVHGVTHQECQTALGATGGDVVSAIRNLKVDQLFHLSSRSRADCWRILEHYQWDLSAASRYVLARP
Procedure, shortened: as §1

GRK4 = target: T3, GRK4 (Homo sapiens, UniProt P32298)
T3 construct: purchased Reaction Biology Corp
Procedure, shortened: as §1

EPHA1 = target: T4, EPHA1 (Homo sapiens, UniProt P21709)
T4 construct: purchased Reaction Biology Corp
T4 sequence (P21709 26-976): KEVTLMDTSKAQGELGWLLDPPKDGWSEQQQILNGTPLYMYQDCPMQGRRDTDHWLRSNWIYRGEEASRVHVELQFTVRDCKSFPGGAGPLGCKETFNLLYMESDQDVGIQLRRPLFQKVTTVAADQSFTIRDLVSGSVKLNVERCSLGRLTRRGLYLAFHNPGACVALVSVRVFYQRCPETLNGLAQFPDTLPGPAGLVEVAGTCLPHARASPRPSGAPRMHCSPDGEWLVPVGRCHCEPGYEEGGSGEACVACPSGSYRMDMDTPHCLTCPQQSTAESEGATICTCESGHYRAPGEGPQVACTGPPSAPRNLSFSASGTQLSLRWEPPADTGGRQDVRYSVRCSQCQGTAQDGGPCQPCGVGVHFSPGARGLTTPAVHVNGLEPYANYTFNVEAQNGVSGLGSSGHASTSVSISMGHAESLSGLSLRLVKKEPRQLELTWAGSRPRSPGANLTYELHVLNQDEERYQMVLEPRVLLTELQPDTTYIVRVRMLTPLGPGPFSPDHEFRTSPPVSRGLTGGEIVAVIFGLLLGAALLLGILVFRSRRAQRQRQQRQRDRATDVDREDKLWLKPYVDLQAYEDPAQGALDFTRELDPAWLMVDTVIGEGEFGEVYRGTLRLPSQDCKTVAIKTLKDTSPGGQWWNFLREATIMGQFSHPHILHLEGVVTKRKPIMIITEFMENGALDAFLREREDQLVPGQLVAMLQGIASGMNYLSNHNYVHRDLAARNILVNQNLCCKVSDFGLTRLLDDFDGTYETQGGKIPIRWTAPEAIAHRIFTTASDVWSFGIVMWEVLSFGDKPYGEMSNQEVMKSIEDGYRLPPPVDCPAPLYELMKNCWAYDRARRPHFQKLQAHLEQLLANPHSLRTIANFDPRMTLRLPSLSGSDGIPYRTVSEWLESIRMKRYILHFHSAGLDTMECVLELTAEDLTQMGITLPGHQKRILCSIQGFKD
Procedure, shortened: as §1

[1] = read-out: % Enzyme Activity (relative to DMSO controls) AVG
[2] = read-out: % Enzyme Activity (relative to DMSO controls) Data 1
[3] = read-out: % Enzyme Activity (relative to DMSO controls) Data 2

T3 sequence (P32298 whole entry): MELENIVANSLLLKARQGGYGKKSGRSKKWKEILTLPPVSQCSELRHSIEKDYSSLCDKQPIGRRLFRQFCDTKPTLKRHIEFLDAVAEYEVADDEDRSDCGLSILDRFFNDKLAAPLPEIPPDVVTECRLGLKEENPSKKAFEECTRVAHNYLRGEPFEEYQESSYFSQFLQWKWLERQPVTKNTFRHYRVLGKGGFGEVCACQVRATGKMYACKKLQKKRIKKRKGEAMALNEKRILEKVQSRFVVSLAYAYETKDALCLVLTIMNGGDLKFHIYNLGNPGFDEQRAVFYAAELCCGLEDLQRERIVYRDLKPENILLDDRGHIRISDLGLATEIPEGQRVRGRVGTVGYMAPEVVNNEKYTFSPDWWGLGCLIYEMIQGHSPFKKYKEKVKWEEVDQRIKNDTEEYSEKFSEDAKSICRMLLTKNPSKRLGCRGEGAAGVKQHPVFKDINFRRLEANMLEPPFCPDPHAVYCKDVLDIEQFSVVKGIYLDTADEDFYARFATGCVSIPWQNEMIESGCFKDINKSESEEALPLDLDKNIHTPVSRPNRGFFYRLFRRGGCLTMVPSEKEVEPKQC

CC(C)(C)C(=O)N1N=CC[C@H]1c1ccccc1 [GSK′963]
remaining activity at 10 µM (MARK4; [1]): 107% | remaining activity at 10 µM (MARK4; [2]): 105% | remaining activity at 10 µM (MARK4; [3]): 109% | remaining activity at 10 µM (TNK1; [1]): 98.8% | remaining activity at 10 µM (TNK1; [2]): 100% | remaining activity at 10 µM (TNK1; [3]): 97.2% | remaining activity at 10 µM (GRK4; [1]): 97.9% | remaining activity at 10 µM (GRK4; [2]): 97.9% | remaining activity at 10 µM (GRK4; [3]): 97.8% | remaining activity at 10 µM (EPHA1; [1]): 106% | remaining activity at 10 µM (EPHA1; [2]): 107% | remaining activity at 10 µM (EPHA1; [3]): 106%
